Test results: US20220259213A1, “PYRROLOPYRAZOLE DERIVATIVES, PREPARATION METHOD THEREOF AND APPLICATION THEREOF IN MEDICINE” (SHANGHAI MEDICILON INC., priority 2019, published 2022)

Target: T1, H+/K+ATPase (Oryctolagus cuniculus, UniProt P27112)
T1 construct: The stomach tissue of the rabbit was separated; from tissue; host or cells: rabbit stomach (fundus) mucosa; membrane pellet obtained by differential and Ficoll centrifugation
Test: determination of compounds' inhibition of H+/K+ATPase enzyme activity (malachite green)
Format: biochemical
Details: enzyme extracted from rabbit stomach mucosa; 500 μM ATP; pH 6.5; 37° C.; OD 620 nm; read-out: IC50(μM) inhibition rate (IC50) of H+/K+ATPase enzyme activity
Experimental: Test example: determination of compounds' inhibition of H+/K+ATPase enzyme activity
The following experiment is used to determine the inhibitory effect of the compound of the present invention on the H+/K+ATPase enzyme activity.
Enzyme working solution: titrating the enzyme, diluting the enzyme with buffer solution 1, and taking 5 μl of the diluted solution into 50 μl reaction system.
ATP solution: 100 mM ATP was diluted to 5 mM with no K+buffer, and 5 μl of the diluted solution was added to the 50 μl reaction system, that is, the final concentration of ATP was 500 μM.
MLG color development liquid: 0.12% MLG, 7.5% ammonium molybdate, 11% Tween-20 was mixed as 100:25:2, and adding 15 μl of the mixture into each well during detection.
Buffer 1: 5 mM Tris-HCl pH 6.5, 5 mM magnesium chloride (magnesium chloride), 10 μM valinomycin (valinomycin).
Buffer 2: 50 mM Tris-HCl pH 6.5, 5mM magnesium chloride (magnesium chloride), 10 μM valinomycin (valinomycin), 20 mM KCl.
3.1. H^+/K^+ ATPase enzyme extraction
(1) The stomach tissue of the rabbit was separated, and the blood was washed with tap water, food residue.
(5) After homogenization, if there were larger tissue particles, they could be removed by centrifugation (600 g, 10 min), and then the supernatant was transfered to a clean centrifuge tube. After centrifugation at 20000 g for 30 minutes, then the supernatant was transferred to a clean centrifuge tube at 100000 g for 90 minutes, and the precipitate was collected.
(7) Resuspending the precipitate with homogenization buffer, blowing uniformly, and the protein concentration was measured by Bradford. Freezing in tubes at −80° C. for later use.
3.2. H+/K+ATPase activity experiment
(1) Adding 35 μl of reaction buffer to each experimental well, and then adding 35 μl of buffer 1.
(2) Adding 5 μl buffer 1 containing 10% DMSO to the whole enzyme and buffer well.
(3) Adding 5 μl of 10× compound working solution to the compound well and mixing well.
(4) Adding 5 μl of buffer 1 to the buffer well.
(5) Adding 5 μl of 10× enzyme working solution to the remaining wells, mixing and incubating at 37° C. for 30minutes.
(6) Adding 5 μl of 10×ATP working solution to all experimental wells, mixing and incubating at 37° C. for 20 min.
(7) Adding 15 μl MLG chromogenic solution to all experimental wells, and uniformly mixing and incubating at room temperature for 5-30 min.
(8) The reading number of 620 nm was detected by an M5 instrument.
The inhibition rate is calculated with the following formula:
Inhibition rate (IC50)=[OD (sample well)−OD (full enzyme well containing potassium chloride)]/[(OD (full enzyme well containing potassium chloride)−(OD (full enzyme well without potassium chloride)]×100%

T1 sequence (P27112 whole entry): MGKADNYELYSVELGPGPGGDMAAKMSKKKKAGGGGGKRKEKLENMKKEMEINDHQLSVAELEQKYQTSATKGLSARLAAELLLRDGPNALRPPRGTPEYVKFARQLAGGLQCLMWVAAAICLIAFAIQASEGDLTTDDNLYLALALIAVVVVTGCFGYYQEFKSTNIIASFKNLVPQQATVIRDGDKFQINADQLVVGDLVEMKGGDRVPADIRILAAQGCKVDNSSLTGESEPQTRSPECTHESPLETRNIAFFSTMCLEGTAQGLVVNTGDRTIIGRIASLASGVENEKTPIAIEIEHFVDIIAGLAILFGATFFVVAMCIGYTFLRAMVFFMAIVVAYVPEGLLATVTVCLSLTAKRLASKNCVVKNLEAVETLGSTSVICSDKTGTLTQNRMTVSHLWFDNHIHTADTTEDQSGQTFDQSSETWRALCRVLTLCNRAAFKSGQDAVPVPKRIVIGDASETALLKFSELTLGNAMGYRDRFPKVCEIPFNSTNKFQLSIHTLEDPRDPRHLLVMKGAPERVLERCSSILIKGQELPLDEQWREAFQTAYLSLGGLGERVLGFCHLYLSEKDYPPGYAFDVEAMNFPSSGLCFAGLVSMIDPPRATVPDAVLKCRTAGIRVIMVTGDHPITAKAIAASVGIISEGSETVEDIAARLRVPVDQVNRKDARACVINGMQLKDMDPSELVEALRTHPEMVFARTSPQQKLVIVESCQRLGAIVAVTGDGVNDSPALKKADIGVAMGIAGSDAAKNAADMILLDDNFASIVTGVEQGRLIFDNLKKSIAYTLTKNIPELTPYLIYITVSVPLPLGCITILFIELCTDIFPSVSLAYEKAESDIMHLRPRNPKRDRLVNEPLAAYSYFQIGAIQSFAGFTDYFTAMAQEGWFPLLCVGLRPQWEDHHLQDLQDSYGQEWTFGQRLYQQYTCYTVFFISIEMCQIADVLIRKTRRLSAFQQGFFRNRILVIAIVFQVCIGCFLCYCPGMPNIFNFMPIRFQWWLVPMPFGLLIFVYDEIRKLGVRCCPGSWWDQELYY
T1 sequence (P18597 whole entry partner): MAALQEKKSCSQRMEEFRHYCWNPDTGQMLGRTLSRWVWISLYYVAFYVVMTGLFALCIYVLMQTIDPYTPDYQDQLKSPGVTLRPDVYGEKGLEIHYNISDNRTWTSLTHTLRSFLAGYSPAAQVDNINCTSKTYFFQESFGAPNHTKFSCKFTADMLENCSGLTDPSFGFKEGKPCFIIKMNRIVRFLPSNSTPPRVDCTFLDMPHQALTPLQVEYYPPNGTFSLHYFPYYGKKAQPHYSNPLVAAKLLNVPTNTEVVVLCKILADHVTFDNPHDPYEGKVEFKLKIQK

IC50 [µM] | SMILES
3.55 | CN1Cc2nn(Cc3cccnc3)c(-c3ccc4c(c3)CCO4)c2C1 [Example 1, 3-(2,3-dihydrobenzofuran-5-methyl)-5-methyl-2-(pyridin-3-ylmethyl)-2,4,5,6-tetrahydropyrrole[3,4-c]pyrazole]
1.38 | CN1Cc2nn(Cc3cccnc3)c(-c3ccc4occc4c3)c2C1 [Example 2, 3-(benzofuran-5-yl)-5-methyl-2-(pyridin-3-ylmethyl)-2,4,5,6-tetrahydropyrrole[3,4-c]pyrazole]
24 | CN1Cc2nn(Cc3cccnc3)c(-c3ccc4[nH]cnc4c3)c2C1 [Example 3, (5-methyl-2-(pyridin-3-ylmethyl)-2,4,5,6-tetrahydropyrrole[3,4-c]pyrazol-3-yl)-1H-benzo[d]imidazole]
0.674 | CN1Cc2nn(Cc3cccnc3)c(-c3ccccc3F)c2C1 [Example 4, (2-fluorophenyl)-5-methyl-2-(pyridin-3-ylmethyl)-2,4,5,6-tetrahydropyrrole[3,4-c]pyrazole]
0.365 | COc1ccc(Cn2nc3c(c2-c2ccccc2F)CN(C)C3)cn1 [Example 5, 3-(2-fluorobenzeneyl)-2-((6-methoxypyridin-3-yl)methyl)-5-methyl-2,4,5,6-tetrahydropyrrolo[3,4-c]pyrazole]
